Source: publication PMC7419507, “In vitro Cas9-assisted editing of modular polyketide synthase genes to produce desired natural product derivatives” (Nature Communications, 2020)
Where “and” joins values, the source holds several entries; their conditions need not be identical. Equal values may be shown once.

How the values were obtained:
[1] = Cytotoxicity assay (CellTiter-Glo, 72 h), MESO-1; assay type: cell-based; settings: human, MESO-1 malignant pleural mesothelioma cells, raw replicate data, read-out: MESO1 viability (%)
Method in brief: (§1)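 Incubate 4 h at 37 °C, 5% CO2. Add 2-fold compound dilutions, 0.5% DMSO. After 72 h, read CellTiter-Glo luminescence.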

[2] = system: malignant pleural mesothelioma MESO-1 cells; test: Cytotoxicity assay (CellTiter-Glo, 72 h), MESO-1; assay type: cell-based; settings: raw replicate data
Method in brief: as §1

FKBP12 and mTOR = biological target: T1, FKBP12 and mTOR (Homo sapiens, UniProt P42345+P62942); test: Fluoppi analysis: induction of FKBP12-mTOR complex formation in transfected HeLa cells; assay type: cell-based; settings: for Foci intensity: raw data, one replicate per line
T1 construct: host or cells: HeLa cells
Method in brief: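 Complex formation read as fluorescent foci: foci intensity over total per-cell intensity, imaged (×20, 9 fields/well) after fixation and Hoechst stain, giving EC50. Cells: HeLa transiently expressing hAG-mTOR and Ash-FKBP12, exposed to compound concentrations for 1 h at 37 °C.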

[3] = Cytotoxicity assay (CellTiter-Glo, 72 h), SKOV-3; assay type: cell-based, human; settings: human, raw replicate data, read-out: SKOV3 viability (%)
Method in brief: as §1

[4] = system: human ovarian adenocarcinoma SKOV-3 cells; test: Cytotoxicity assay (CellTiter-Glo, 72 h), SKOV-3; assay type: cell-based; settings: raw replicate data
Method in brief: as §1

[5] = system: Jurkat, SKOV-3 and MESO-1 cells; test: Cytotoxicity assay, statements for all tested cell lines together; assay type: cell-based; settings: Jurkat, SKOV-3 and MESO-1 cells, 72 h
Method: Jurkat cells were cultured in RPMI1640 medium supplemented with 10% foetal bovine serum, penicillin (50 U/ml), streptomycin (50 μg/ml), and Glutamax. SKOV-3 cells were cultured in DMEM medium supplemented with 10% fetal bovine serum, penicillin (50 U/ml), and streptomycin (50 μg/ml). MESO-1 cells were cultured in RPMI1640 medium supplemented with 10% fetal bovine serum, penicillin (50 U/ml), and streptomycin (50 μg/ml). All cell lines were seeded in a 384-well plate at a density of 1000 cells/well in 20 μl of media and incubated at 37 °C in a humidified incubator with 5% CO2. After 4 h, 2-fold dilution samples resolved in DMSO were added to the cell culture at the concentration of 0.5% (0.1 μl) and incubated for 72 h. Cell viabilities were measured using a CellTiter-Glo luminescent cell viability assay and EnVision multilabel plate reader.

T1 sequence (P42345 2025-2114 limits assumed): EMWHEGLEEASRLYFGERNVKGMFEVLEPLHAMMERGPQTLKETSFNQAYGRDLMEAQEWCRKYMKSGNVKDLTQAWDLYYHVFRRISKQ
T1 sequence (P62942 whole entry): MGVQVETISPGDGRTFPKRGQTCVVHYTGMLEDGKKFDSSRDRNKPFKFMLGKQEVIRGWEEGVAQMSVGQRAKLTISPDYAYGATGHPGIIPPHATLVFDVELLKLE

CO[C@H]1C[C@@H]2CC[C@@H](C)[C@@](O)(O2)C(=O)C(=O)N2CCCC[C@H]2C(=O)O[C@H]([C@H](C)C[C@@H]2CC[C@@H](O)[C@H](OC)C2)CC(=O)[C@H](C)/C=C(\C)[C@@H](O)CC[C@H](C)/C=C/C=C/C=C/1C [Compound 7]
viability at 72 h, 9.53674e-05 uM ([1]; conc 9.53674e-5 uM): 96.8%
viability at 72 h, 0.000190735 uM ([1]; conc 0.000190735 uM): 92.7%
viability at 72 h, 0.00038147 uM ([1]; conc 0.00038147 uM): 98.8%
viability at 72 h, 0.000762939 uM ([1]; conc 0.000762939 uM): 94.4%
viability at 72 h, 0.00152588 uM ([1]; conc 0.00152588 uM): 97.9%
viability at 72 h, 0.00305176 uM ([1]; conc 0.00305176 uM): 90.7%
viability at 72 h, 0.00610352 uM ([1]; conc 0.00610352 uM): 100%
viability at 72 h, 0.012207 uM ([1]; conc 0.012207 uM): 86%
viability at 72 h, 0.0244141 uM ([1]; conc 0.0244141 uM): 90.4%
viability at 72 h, 0.0488281 uM ([1]; conc 0.0488281 uM): 80.8%
viability at 72 h, 0.0976562 uM ([1]; conc 0.0976562 uM): 78.6%
viability at 72 h, 0.195312 uM ([1]; conc 0.195312 uM): 68.6%
viability at 72 h, 0.390625 uM ([1]; conc 0.390625 uM): 71.6%
viability at 72 h, 0.78125 uM ([1]; conc 0.78125 uM): 67.7%
viability at 72 h, 1.5625 uM ([1]; conc 1.5625 uM): 70.1%
viability at 72 h, 3.125 uM ([1]; conc 3.125 uM): 60.8%
viability at 72 h, 6.25 uM ([1]; conc 6.25 uM): 67.3%
viability at 72 h, 12.5 uM ([1]; conc 12.5 uM): 66.3%
viability at 72 h, 25 uM ([1]; conc 25 uM): 64.4%
viability at 72 h, 50 uM ([1]; conc 50 uM): 23.2%
MESO1 viability (%) ([2]; conc 9.53674e-5 uM): 102.2% and 99.0%
MESO1 viability (%) ([2]; conc 0.000190735 uM): 96.1%
MESO1 viability (%) ([2]; conc 0.00038147 uM): 98.4% and 104.2%
MESO1 viability (%) ([2]; conc 0.000762939 uM): 97.5%
MESO1 viability (%) ([2]; conc 0.00152588 uM): 94.3% and 98.4%
MESO1 viability (%) ([2]; conc 0.00305176 uM): 93.1% and 92.8%
MESO1 viability (%) ([2]; conc 0.00610352 uM): 98.2%
MESO1 viability (%) ([2]; conc 0.012207 uM): 92.2% and 89.5%
MESO1 viability (%) ([2]; conc 0.0244141 uM): 87.8%
MESO1 viability (%) ([2]; conc 0.0488281 uM): 86.4% and 84.2%
MESO1 viability (%) ([2]; conc 0.0976562 uM): 76.6% and 76.8%
MESO1 viability (%) ([2]; conc 0.195312 uM): 70.4% and 63.5%
MESO1 viability (%) ([2]; conc 0.390625 uM): 69.2% and 71.3%
MESO1 viability (%) ([2]; conc 0.78125 uM): 64.7% and 62.9%
MESO1 viability (%) ([2]; conc 1.5625 uM): 70.0% and 72.7%
MESO1 viability (%) ([2]; conc 3.125 uM): 62.1% and 64.7%
MESO1 viability (%) ([2]; conc 6.25 uM): 67.5% and 72.2%
MESO1 viability (%) ([2]; conc 12.5 uM): 60.9% and 63.2%
MESO1 viability (%) ([2]; conc 25 uM): 63.3% and 65.2%
MESO1 viability (%) ([2]; conc 50 uM): 30.2% and 20.1%
PPI-inducing (binding enhancing) activity between FKBP12 and mTOR compared with rapamycin (1), in words (FKBP12 and mTOR; Fluoppi): much less potent than 1
EC50 (FKBP12 and mTOR; Fluoppi, HeLa cells, 1 h treatment, three independent biological replicates, read-out: EC50, induction of the formation of FKBP-mTOR complex): 320 nM
Foci intensity (FKBP12 and mTOR; conc 9.53674e-5 uM): 0.01546 and 0.009859 and 0.01479
Foci intensity (FKBP12 and mTOR; conc 0.000190735 uM): 0.02291 and 0.01436 and 0.01269
Foci intensity (FKBP12 and mTOR; conc 0.00038147 uM): 0.01763 and 0.009567 and 0.009808
Foci intensity (FKBP12 and mTOR; conc 0.000762939 uM): 0.02965 and 0.01327 and 0.0132
Foci intensity (FKBP12 and mTOR; conc 0.00152588 uM): 0.01988 and 0.005935 and 0.01208
Foci intensity (FKBP12 and mTOR; conc 0.00305176 uM): 0.01996 and 0.02873 and 0.02267
Foci intensity (FKBP12 and mTOR; conc 0.00610352 uM): 0.009728 and 0.0229 and 0.03931
Foci intensity (FKBP12 and mTOR; conc 0.012207 uM): 0.02585 and 0.06278 and 0.01094
Foci intensity (FKBP12 and mTOR; conc 0.0244141 uM): 0.02982 and 0.02323 and 0.02961
Foci intensity (FKBP12 and mTOR; conc 0.0488281 uM): 0.03327 and 0.007263 and 0.02034
Foci intensity (FKBP12 and mTOR; conc 0.0976562 uM): 0.0343 and 0.0166 and 0.04409
Foci intensity (FKBP12 and mTOR; conc 0.195312 uM): 0.1225 and 0.05897 and 0.08613
Foci intensity (FKBP12 and mTOR; conc 0.390625 uM): 0.2002 and 0.2003 and 0.254
Foci intensity (FKBP12 and mTOR; conc 0.78125 uM): 0.2477 and 0.2297 and 0.3237
Foci intensity (FKBP12 and mTOR; conc 1.5625 uM): 0.2891 and 0.3472 and 0.3016
Foci intensity (FKBP12 and mTOR; conc 3.125 uM): 0.3418 and 0.3544 and 0.3825
Foci intensity (FKBP12 and mTOR; conc 6.25 uM): 0.285 and 0.273 and 0.328
Foci intensity (FKBP12 and mTOR; conc 12.5 uM): 0.2778 and 0.3903 and 0.3448
Foci intensity (FKBP12 and mTOR; conc 25 uM): 0.3624 and 0.278 and 0.3289
Foci intensity (FKBP12 and mTOR; conc 50 uM): 0.2714 and 0.2974 and 0.3445
viability at 72 h, 9.53674e-05 uM ([3]; SKOV-3 cells (ovarian adenocarcinoma), conc 9.53674e-5 uM): 101%
viability at 72 h, 0.000190735 uM ([3]; SKOV-3 cells (ovarian adenocarcinoma), conc 0.000190735 uM): 101%
viability at 72 h, 0.00038147 uM ([3]; SKOV-3 cells (ovarian adenocarcinoma), conc 0.00038147 uM): 98.2%
viability at 72 h, 0.000762939 uM ([3]; SKOV-3 cells (ovarian adenocarcinoma), conc 0.000762939 uM): 98.7%
viability at 72 h, 0.00152588 uM ([3]; SKOV-3 cells (ovarian adenocarcinoma), conc 0.00152588 uM): 101%
viability at 72 h, 0.00305176 uM ([3]; SKOV-3 cells (ovarian adenocarcinoma), conc 0.00305176 uM): 94.8%
viability at 72 h, 0.00610352 uM ([3]; SKOV-3 cells (ovarian adenocarcinoma), conc 0.00610352 uM): 98.4%
viability at 72 h, 0.012207 uM ([3]; SKOV-3 cells (ovarian adenocarcinoma), conc 0.012207 uM): 96.9%
viability at 72 h, 0.0244141 uM ([3]; SKOV-3 cells (ovarian adenocarcinoma), conc 0.0244141 uM): 94.4%
viability at 72 h, 0.0488281 uM ([3]; SKOV-3 cells (ovarian adenocarcinoma), conc 0.0488281 uM): 92.3%
viability at 72 h, 0.0976562 uM ([3]; SKOV-3 cells (ovarian adenocarcinoma), conc 0.0976562 uM): 88.5%
viability at 72 h, 0.195312 uM ([3]; SKOV-3 cells (ovarian adenocarcinoma), conc 0.195312 uM): 64.9%
viability at 72 h, 0.390625 uM ([3]; SKOV-3 cells (ovarian adenocarcinoma), conc 0.390625 uM): 75%
viability at 72 h, 12.5 uM ([3]; SKOV-3 cells (ovarian adenocarcinoma), conc 12.5 uM): 56.1%
viability at 72 h, 25 uM ([3]; SKOV-3 cells (ovarian adenocarcinoma), conc 25 uM): 30.8%
viability at 72 h, 50 uM ([3]; SKOV-3 cells (ovarian adenocarcinoma), conc 50 uM): 6.6%
viability at 72 h, 0.78125 uM ([3]; SKOV-3 ovarian adenocarcinoma cells, conc 0.78125 uM): 59.1%
viability at 72 h, 1.5625 uM ([3]; SKOV-3 ovarian adenocarcinoma cells, conc 1.5625 uM): 62%
viability at 72 h, 3.125 uM ([3]; SKOV-3 ovarian adenocarcinoma cells, conc 3.125 uM): 59.9%
viability at 72 h, 6.25 uM ([3]; SKOV-3 ovarian adenocarcinoma cells, conc 6.25 uM): 61.9%
SKOV3 viability (%) ([4]; conc 9.53674e-5 uM): 108.9% and 101.6%
SKOV3 viability (%) ([4]; conc 0.000190735 uM): 101.5% and 97.4%
SKOV3 viability (%) ([4]; conc 0.00038147 uM): 103.2% and 103.5%
SKOV3 viability (%) ([4]; conc 0.000762939 uM): 102.5%
SKOV3 viability (%) ([4]; conc 0.00152588 uM): 105.1% and 100.3%
SKOV3 viability (%) ([4]; conc 0.00305176 uM): 94.9% and 97.9%
SKOV3 viability (%) ([4]; conc 0.00610352 uM): 104.9% and 101.4%
SKOV3 viability (%) ([4]; conc 0.012207 uM): 92.0% and 94.0%
SKOV3 viability (%) ([4]; conc 0.0244141 uM): 99.4% and 102.3%
SKOV3 viability (%) ([4]; conc 0.0488281 uM): 100.8% and 88.2%
SKOV3 viability (%) ([4]; conc 0.0976562 uM): 88.7% and 90.6%
SKOV3 viability (%) ([4]; conc 0.195312 uM): 66.8% and 68.9%
SKOV3 viability (%) ([4]; conc 0.390625 uM): 68.2% and 69.5%
SKOV3 viability (%) ([4]; conc 0.78125 uM): 60.2% and 57.4%
SKOV3 viability (%) ([4]; conc 1.5625 uM): 64.2% and 69.2%
SKOV3 viability (%) ([4]; conc 3.125 uM): 60.4% and 56.6%
SKOV3 viability (%) ([4]; conc 6.25 uM): 60.8% and 65.6%
SKOV3 viability (%) ([4]; conc 12.5 uM): 53.3% and 53.4%
SKOV3 viability (%) ([4]; conc 25 uM): 31.4% and 36.3%
SKOV3 viability (%) ([4]; conc 50 uM): 5.9% and 7.4%
Effect on cell viability, in words [5]: slightly suppressed the cell viabilities
